# What was measured:
# MftR L120R = MftR L120R (Mycolicibacterium smegmatis, UniProt A0QSB5, L120R); assay: ITC binding of oleoyl-CoA to MftR variant; design: species or system Mycobacterium smegmatis mc^2155
# Protocol: (§1) Finally, we examined the effects of mutations at the interface of the DNA-binding and effector-binding domains. Here, residues Leu120 and Met127 were mutated to arginine and alanine, respectively, and the Kds for oleoyl-CoA and Omft were measured as described previously.
# (§2) Mutant strand synthesis reactions were performed according to the Agilent QuikChange site-directed mutagenesis protocol. The mftR_pET28a plasmid was used as a template for site-directed mutagenesis studies. Sequence-verified plasmids were transformed into E. coli BL21(DE3) pLysS cells for protein production and purified using the same protocol as wildtype MftR.
# (§3) ITC was performed using TA Nano ITC. MftR was loaded in the sample cell at the concentration of 16 and 250 μM acyl-CoAs (C12–C18) loaded in the syringe. To minimize the effect of buffer mismatch, the stock concentration of acyl-CoAs was prepared using ITC buffer (50 mM Hepes, 50 mM NaCl, and pH 7.5), and the pH was adjusted to within 0.05 units. In addition, MftR was buffer exchanged into ITC buffer using a PD-10 column (GE Life Sciences). The volume of the titrant added at each injection into the sample cell was 2.22 μl. The time interval between the successive injections was 180 s. The temperature of the cell was kept at 25 °C. […]
# MftR M127A = MftR M127A (Mycolicibacterium smegmatis, UniProt A0QSB5, M127A); assay: ITC binding of oleoyl-CoA to MftR variant; design: species or system Mycobacterium smegmatis mc^2155
# Protocol: as §1, §2, §3
# MftR–Omft complex = assay: Competitive EMSA screen for effectors of MftR; format: binding, Mycobacterium smegmatis mc^2155; settings: 6-FAM Omft 0.5 μM, MftR 5 μM, effectors 100 μM
# Protocol: Next, we assessed which metabolites activate MftR and thus could induce MFT production. To do so, we carried out competitive EMSAs where FAM-labeled Omft and MftR were incubated in the presence of potential effectors. We initially chose our effectors based on cholesterol catabolism, a process that putatively includes MFT biosynthetic genes ([38]). […] Knowing that TFRs have a propensity to be activated by fatty acyl-CoAs ([20]), we expanded our effector screening to include short-chain, medium-chain, and long-chain acyl-CoAs.
# Figure 4 Effectors of MftR.A, an EMSA used to screen effectors of MftR. The 6-FAM–labeled Omft region (0.5 μM) was incubated with the MftR (5 μM) in the absence or the presence of effectors (100 μM). Protein–DNA complexes were separated by electrophoresis on 5% polyacrylamide gel. […] B, a representative isothermal titration calorimetry thermogram for the binding of the oleoyl-CoA to MftR regulator (blue) and the control of oleoyl-CoA into buffer (red). Each peak corresponds to the injection of 2.22 μl of 250 μM oleoyl-CoA into the cell containing 16 μM MftR or buffer. The integrated thermogram (blue dots) was fitted to a single-site binding model (black line) to determine the Kd. […] C, a bar graph depicting the ITC measured Kds for various acyl-CoAs. Bars represent the mean of three independent experiments, and the error bars represent the standard deviation of the experiments. 6-FAM, 6-carboxyfluorescein; ITC, isothermal titration calorimetry; Omft, mft operator.
# His-tagged MftR was used to assess the protein binding to Pmft–MftA promoter fragment. DNA was mixed with increasing concentrations of the MftR protein in the reaction buffer (50 mM Hepes, 50 mM NaCl 0.1 mM EDTA, and pH 7.5) and incubated at room temperature for 10 min. The reactions were resolved by electrophoresis on a 5% (v/v) nondenaturing polyacrylamide gel in 1× Tris/borate/EDTA buffer at 200 V for 20 min on ice. Prior to the analysis, the gel was prerun for 30 min at 150 V on ice. Results were visualized by GelRed and recorded using Azure Biosystems 600 imaging system.
# MftR H68A–Omft complex = assay: Competitive EMSA with H68A mutant and oleoyl-CoA; format: binding, Mycobacterium smegmatis mc^2155; settings: up to 100 μM oleoyl-CoA
# From the text: Next, we examined which amino acid residues contribute to the interaction between MftR and oleoyl-CoA. The crystal structure of Msmeg MftR is currently unavailable; however, an unpublished structure of Rhodococcus jostii RHA1 MftR has been deposited in the Protein Data Bank (PDB) (PDB ID: 2RAE, 54% identical, Fig. S3). Using this structure, we employed SwissDock to model oleoyl-CoA bound to MftR (Fig. 5) ([41], [42]). From the docked structure, we identified eight conserved residues on MftR that were expected to create the acyl-binding pocket or bind CoA through electrostatic interactions. Following single amino acid replacements of the residues, we measured the Kd values of the mutant proteins to oleoyl-CoA using ITC. For the putative acyl-binding pocket residues Phe65, Phe96, and Ile114, mutations to alanine led to no or modest change to the Kd for oleoyl-CoA (Table 1). […] Conversely, when His68 was mutated to alanine, binding of oleoyl-CoA by the protein was undetectable. To validate this observation, competitive EMSAs were carried out using the H68A mutant. […] Thus, it is highly likely that His68 is an important residue for oleoyl-CoA binding. To evaluate residues that were expected to interact with CoA, Gln15, Asp16, Ser67, and Asp66 were targeted. Of these, mutants of Asp16 and Ser67 had the greatest effect (Table 1). […]
# Sequence of MftR L120R (A0QSB5 entry or part of it L120R): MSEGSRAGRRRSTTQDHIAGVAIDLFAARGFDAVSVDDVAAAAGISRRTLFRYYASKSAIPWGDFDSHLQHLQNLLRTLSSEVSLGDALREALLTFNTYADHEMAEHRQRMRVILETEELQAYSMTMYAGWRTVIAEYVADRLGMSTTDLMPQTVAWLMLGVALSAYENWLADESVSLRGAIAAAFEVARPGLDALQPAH
# Sequence of MftR M127A (A0QSB5 entry or part of it M127A): as the sequence (A0QSB5 entry or part of it L120R) above
smiles,measurement,setting,value
CCCCCCCC/C=C\CCCCCCCC(=O)SCCNC(=O)CCNC(=O)[C@H](O)C(C)(C)COP(=O)(O)OP(=O)(O)OC[C@H]1O[C@@H](n2cnc3c(N)ncnc32)[C@H](O)[C@@H]1OP(=O)(O)O [oleoyl-CoA],Kd,MftR L120R,6.2 ± 0.2 µM
same,Kd,MftR M127A,4.8 ± 0.1 µM
same,disruption of the MftR–Omft complex (DNA release),MftR–Omft complex,disrupted the MftR–Omft complex
same,release of Omft from H68A mutant,MftR H68A–Omft complex,remained bound to Omft
